Assay results reported in US9763445B2, “Safened herbicidal compositions comprising a pyridine carboxylic acid herbicide” (Dow AgroSciences, LLC, priority 2014, dated 2017).
Read-outs that look alike come from different tables or passages of the source.

How the values were obtained:
wild mustard (SINAR) = assay: Postemergence greenhouse trial, % visual injury on wild mustard; format: in vivo, Sinapis arvensis; conditions: Brassica, post-emergence, SINAR, read-out: % visual injury, Ob
Summary of the method: (§1)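 Herbicide rates g ae/ha, safener (cloquintocet-mexyl) rates g ai/ha; spray carrier 1.5% v/v crop oil concentrate, 187 L/ha, 2nd–3rd leaf stage. Rating: visual % injury at 20-22 d.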

kochia (KCHSC) = assay: Postemergence greenhouse trial, % visual injury on kochia; format: in vivo, Kochia scoparia; conditions: Bassia scoparia, post-emergence, KCHSC, read-out: % visual injury, Ob
Summary of the method: as §1

winter rape (BRSNW) = assay: Postemergence greenhouse trial, % visual injury on winter rape; format: in vivo, Brassica napus; conditions: Brassica napus, post-emergence, BRSNW, read-out: % visual injury, Ob
Summary of the method: (§2)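 Visual injury, 0 (none) to 100 (complete kill), rated 20-22 d after overhead track-sprayer application at 187 L/ha; Colby's equation gave expected mixture responses. Herbicide (g ae/ha) and cloquintocet-mexyl safener (g ai/ha) diluted in aqueous 1.5% v/v Agri-dex, applied to weeds at 2–3 true leaves.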

[1] = tested on: bird's-eye speedwell (VERPE); assay: Postemergence greenhouse trial, % visual injury on bird's-eye speedwell; format: in vivo, Veronica persica; conditions: VERPE, CQC-m 0
Procedure: Seeds of the desired test plant species were planted in Sun Gro MetroMix® 306 planting mixture, which typically has a pH of 6.0 to 6.8 and an organic matter content of about 30 percent, in plastic pots with a surface area of 103.2 square centimeters (cm^2). When required to ensure good germination and healthy plants, a fungicide treatment and/or other chemical or physical treatment was applied. The plants were grown for 7-36 days (d) in a greenhouse with an approximate 14-hour (h) photoperiod which was maintained at about 23° C. during the day and 22° C. during the night. Nutrients and water were added on a regular basis and supplemental lighting was provided with overhead metal halide 1000-Watt lamps as necessary. The plants were employed for testing when they reached the second or third true leaf stage.
Weighed amounts of technical material were dissolved in a volume of 97:3 volume per volume (v/v) acetone/dimethyl sulfoxide (DMSO) to stock solutions. […] The concentrated stock solutions were diluted with an aqueous mixture of 1.5% v/v of Agri-dex crop oil concentrate to provide the appropriate application rates. Compound requirements are based upon a 12 milliliter (mL) application volume at a rate of 187 liters per hectare (L/ha). Stocks solutions of the safeners were prepared following the same procedure. Spray solutions of the safeners and experimental compound mixtures were prepared by adding the stock solutions to the appropriate amount of dilution solution to form a 12 mL spray solution in two-way combinations. Formulated compounds were applied to the plant material with an overhead Mandel track sprayer equipped with 8002E nozzles calibrated to deliver 187 L/ha over an application area of 0.503 square meters (m^2) at a spray height of 18 inches (43 centimeters (cm)) above average plant canopy. Control plants were sprayed in the same manner with the solvent blank. All herbicide application (component a) rates are in g ae/ha and all safener (component b) rates are in g ai/ha.
The treated plants and control plants were placed in a greenhouse as described above and watered by sub-irrigation to prevent wash-off of the test compounds. After 20-22 d, the condition of the test plants as compared with that of the control plants was determined visually and scored on a scale of 0 to 100 percent where 0 corresponds to no injury and 100 corresponds to complete kill. […] Colby's equation was used to determine the herbicidal effects expected from the mixtures. […]

thistle (CIRAR) = assay: Postemergence greenhouse trial, % visual injury on thistle; format: in vivo, Cirsium arvense; conditions: Cirsium arvense, post-emergence, CIRAR, read-out: % visual injury, Ob
Summary of the method: as §2

pigweed (AMARE) = assay: Postemergence greenhouse trial, % visual injury on pigweed; format: in vivo, Amaranthus retroflexus; conditions: Amaranthus retroflexus, post-emergence, AMARE, applied alone, read-out: % visual injury, Ob
Summary of the method: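 Injury was scored visually (0 = none, 100 = complete kill) 20–22 d after track-sprayer application at 187 L/ha, compared with solvent-sprayed controls. Test plants at the 2–3 true leaf stage; herbicide (g ae/ha) plus cloquintocet-mexyl safener (g ai/ha) in crop-oil-containing spray; expected mixture response by Colby.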

common poppy (PAPRH) = assay: Postemergence greenhouse trial, % visual injury on common poppy; format: in vivo, Papaver rhoeas; conditions: Papaver rhoeas, post-emergence, PAPRH, applied alone, read-out: % visual injury, Ob
Summary of the method: as §1

## CO/C=N/c1c(F)c(-c2ccc3cc[nH]c3c2F)nc(C(=O)OC)c1Cl [compound 10]
Wild mustard (SINAR); compound 4.380 g/ha, CQC-m 0
  pest or weed control at 4.38 g/ha: 90%
Wild mustard (SINAR); compound 8.75 g/ha, CQC-m 0
  pest or weed control at 8.75 g/ha: 93%
Wild mustard (SINAR); compound 17.5 g/ha, CQC-m 0
  pest or weed control at 17.5 g/ha: 97%
Wild mustard (SINAR); compound 35 g/ha, CQC-m 0
  pest or weed control at 35 g/ha: 100%
Wild mustard (SINAR); compound 70 g/ha, CQC-m 0
  pest or weed control at 70 g/ha: 100%
Kochia (KCHSC); compound 4.380 g/ha, CQC-m 0
  pest or weed control at 4.38 g/ha: 80%
Kochia (KCHSC); compound 8.75 g/ha, CQC-m 0
  pest or weed control at 8.75 g/ha: 80%
Kochia (KCHSC); compound 17.5 g/ha, CQC-m 0
  pest or weed control at 17.5 g/ha: 100%
Kochia (KCHSC); compound 35 g/ha, CQC-m 0
  pest or weed control at 35 g/ha: 100%
Kochia (KCHSC); compound 70 g/ha, CQC-m 0
  pest or weed control at 70 g/ha: 100%
Winter rape (BRSNW); compound 4.380 g/ha, CQC-m 0
  plant injury at 4.38 g/ha: 85%
Winter rape (BRSNW); compound 8.75 g/ha, CQC-m 0
  plant injury at 8.75 g/ha: 95%
Winter rape (BRSNW); compound 17.5 g/ha, CQC-m 0
  plant injury at 17.5 g/ha: 100%
Winter rape (BRSNW); compound 35 g/ha, CQC-m 0
  plant injury at 35 g/ha: 100%
Winter rape (BRSNW); compound 70 g/ha, CQC-m 0
  plant injury at 70 g/ha: 100%
[1]; compound 4.380 g/ha
  % visual injury, Ob: 70%
[1]; compound 8.75 g/ha
  % visual injury, Ob: 85%
[1]; compound 17.5 g/ha
  % visual injury, Ob: 90%
[1]; compound 35 g/ha
  % visual injury, Ob: 100%
[1]; compound 70 g/ha
  % visual injury, Ob: 100%
Thistle (CIRAR); compound 4.380 g/ha, CQC-m 0
  pest or weed control at 4.38 g/ha: 30%
Thistle (CIRAR); compound 8.75 g/ha, CQC-m 0
  pest or weed control at 8.75 g/ha: 40%
Thistle (CIRAR); compound 17.5 g/ha, CQC-m 0
  pest or weed control at 17.5 g/ha: 60%
Thistle (CIRAR); compound 35 g/ha, CQC-m 0
  pest or weed control at 35 g/ha: 85%
Thistle (CIRAR); compound 70 g/ha, CQC-m 0
  pest or weed control at 70 g/ha: 100%

## Nc1c(F)c(-c2ccc3scnc3c2)nc(C(=O)O)c1Cl [compound 17]
Wild mustard (SINAR); 4.375 g/ha, applied alone
  pest or weed control at 4.375 g/ha: 93%
Wild mustard (SINAR); 8.75 g/ha, applied alone
  pest or weed control at 8.75 g/ha: 93%
Wild mustard (SINAR); 17.5 g/ha, applied alone
  pest or weed control at 17.5 g/ha: 95%
Wild mustard (SINAR); 35 g/ha, applied alone
  pest or weed control at 35 g/ha: 95%
Wild mustard (SINAR); 70 g/ha, applied alone
  pest or weed control at 70 g/ha: 100%
Kochia (KCHSC); 4.375 g/ha, applied alone
  pest or weed control at 4.375 g/ha: 85%
Kochia (KCHSC); 8.75 g/ha, applied alone
  pest or weed control at 8.75 g/ha: 90%
Kochia (KCHSC); 17.5 g/ha, applied alone
  pest or weed control at 17.5 g/ha: 95%
Kochia (KCHSC); 35 g/ha, applied alone
  pest or weed control at 35 g/ha: 100%
Kochia (KCHSC); 70 g/ha, applied alone
  pest or weed control at 70 g/ha: 100%
Winter rape (BRSNW); 4.375 g/ha, applied alone
  plant injury at 4.375 g/ha: 60%
Winter rape (BRSNW); 8.75 g/ha, applied alone
  plant injury at 8.75 g/ha: 90%
Winter rape (BRSNW); 17.5 g/ha, applied alone
  plant injury at 17.5 g/ha: 95%
Winter rape (BRSNW); 35 g/ha, applied alone
  plant injury at 35 g/ha: 95%
Winter rape (BRSNW); 70 g/ha, applied alone
  plant injury at 70 g/ha: 97%
Pigweed (AMARE); 17.5 g/ha
  pest or weed control at 17.5 g/ha: 100%
Pigweed (AMARE); 35 g/ha
  pest or weed control at 35 g/ha: 100%
Common poppy (PAPRH); 4.375 g/ha
  pest or weed control at 4.375 g/ha: 80%
Common poppy (PAPRH); 8.75 g/ha
  pest or weed control at 8.75 g/ha: 85%
Common poppy (PAPRH); 17.5 g/ha
  pest or weed control at 17.5 g/ha: 85%
Common poppy (PAPRH); 35 g/ha
  pest or weed control at 35 g/ha: 95%
Common poppy (PAPRH); 70 g/ha
  pest or weed control at 70 g/ha: 100%
Thistle (CIRAR); 4.375 g/ha, applied alone
  pest or weed control at 4.375 g/ha: 0%
Thistle (CIRAR); 8.75 g/ha, applied alone
  pest or weed control at 8.75 g/ha: 0%
Thistle (CIRAR); 17.5 g/ha, applied alone
  pest or weed control at 17.5 g/ha: 10%
Thistle (CIRAR); 35 g/ha, applied alone
  pest or weed control at 35 g/ha: 20%
Thistle (CIRAR); 70 g/ha, applied alone
  pest or weed control at 70 g/ha: 20%
